In patent publication US20200239962A1, “COMPOSITIONS AND METHODS FOR DETECTING A NEOPLASIA” (The Johns Hopkins University, priority 2010, published 2020):

Tested on: BNC1 and ADAMTS1 gene expression in pancreatic cancer cell lines (Panc1, MIA-PaCa2, Capan1, PL45)
Assay: Quantitative RT-PCR re-expression of silenced BNC1 and ADAMTS1 after drug treatment
Type: cell-based, human
Details: 5 uM DAC or 300 nM TSA, relative to mock-treated cells; TSA result excepts PL45
Procedure: FIGS. 2A, 2B, and 2C depict promoter methylation gels and corresponding bar graphs, a CpG methylation diagram, and a schematic depicting methylation-on-bead (MOB) technology, respectively. […] M=methylation signal; U=unmethylated signal. IVD=in vitro methylated DNA. Real-time RT-PCR expression is shown as fold change ±SE relative to mock-treated cells during 5 uM 5-Aza-deoxycitidine (DAC) and 300 nM Trichostatin A (TSA) treatments. […] The BNC1 promoter regions is depicted as a line, with CpG regions designated as vertical slashes. TIS indicates the transcriptional start site. Location of CpG sites (bisulfite priners (BST): upstream region from −331 to +36 relative to transcriptional start site). […] Samples are analyzed using MS-qFRET or gel electrophoresis.
This genome-wide DNA hypermethylome screening is based on a pharmacological approach using 5-deoxy-azacytidineand TSA, which has shown an excellent correlation between promoter DNA methylation and inhibition of gene expression and re-expression after treatment with a DNA demethylating drug, such as 5-deoxy-azacytidine, in prior studies on breast and colorectal cancer. Here, promoter methylation of BNC1 and ADAMTS1 was tested, and correlated with a lack of gene expression in pancreatic cancer cell lines (Panc1, MIA-PaCa2, Capan1, and PL45) using quantitative RT-PCR (qRT-PCR) (FIG. 2A, upper panel). […]

Structure (SMILES)	re-expression of BNC1 and ADAMTS1 (qRT-PCR)
Nc1ncn([C@H]2C[C@H](O)[C@@H](CO)O2)c(=O)n1 [5-deoxy-azacytidine]	significant re-expression
CC(/C=C/C(=O)NO)=C\[C@@H](C)C(=O)c1ccc(N(C)C)cc1 [TSA, Trichostatin A]	minimal re-expression
